Non-standard residues stand in square brackets, D forms with d. Residues, ends and D or L forms follow the SMILES beside them. Aib = CC(C)(N)C(=O)O

The first experiment relates to pancreatic β cells. Kind of experiment: glucose-stimulated insulin secretion (GSIS) assay. The experiment is classed as cell-based. To be noted: GA targeting agent-linker conjugate; GSIS assay in vitro. The protocol:
Briefly, glucose and GA targeting peptide was added at various concentrations to pancreatic β cell cultures, and insulin secretion was detected by measuring insulin levels over time. EC50 was calculated for each peptide.
The ability of these GA targeting agent-linker conjugates to stimulate […] secretion in vitro was measured using the GSIS assay described in Example 27. […] Each of these peptides contained a side-chain modified Lys residue according to the scheme illustrated in FIG. 30 at a different position.
One may read the EC50 as the concentration needed to bring the measured effect to its halfway point. A high value points to weaker potency. `CC[C@H](C)[C@H](NC(=O)[C@H](Cc1ccccc1)NC(=O)[C@H](CCC(=O)O)NC(=O)[C@H](CCCCN)NC(=O)[C@@H](NC(=O)[C@H](C)NC(=O)[C@H](CCC(N)=O)NC(=O)[C@H](CCC(=O)O)NC(=O)[C@H](CCC(=O)O)NC(=O)[C@H](CC(C)C)NC(=O)[C@H](Cc1ccc(O)cc1)NC(=O)[C@H](CO)NC(=O)[C@H](CO)NC(=O)[C@@H](NC(=O)[C@H](CC(=O)O)NC(=O)[C@H](CO)NC(=O)[C@@H](NC(=O)[C@H](Cc1ccccc1)NC(=O)[C@@H](NC(=O)CNC(=O)[C@H](CCC(=O)O)NC(=O)C(C)(C)NC(=O)[C@H](Cc1c[nH]cn1)NC(=O)Cc1cccc(N)c1)[C@@H](C)O)[C@@H](C)O)C(C)C)C(C)C)C(=O)N[C@@H](C)C(=O)N[C@@H](Cc1c[nH]c2ccccc12)C(=O)N[C@@H](CC(C)C)C(=O)N[C@H](C(=O)N[C@@H](CCCCN)C(=O)NC(C)(C)C(=O)N[C@@H](CCCNC(=N)N)C(N)=O)[C@@H](C)CC` showed a concentration for a half-maximal effect (EC50) of less than 10 µM.

Staying with this experiment, now noted: GA targeting peptide; insulin secretion from pancreatic β cell cultures in vitro with glucose.
In the case of `CC[C@H](C)[C@H](NC(=O)[C@H](Cc1ccccc1)NC(=O)[C@H](CCC(=O)O)NC(=O)[C@H](CCCCN)NC(=O)[C@@H](NC(=O)[C@H](C)NC(=O)[C@H](CCC(N)=O)NC(=O)[C@H](CCC(=O)O)NC(=O)[C@H](CCC(=O)O)NC(=O)[C@H](Cc1c[nH]c2ccccc12)NC(=O)[C@H](Cc1ccc(O)cc1)NC(=O)[C@H](CO)NC(=O)[C@H](CO)NC(=O)[C@@H](NC(=O)[C@H](CC(=O)O)NC(=O)[C@H](CO)NC(=O)[C@@H](NC(=O)[C@H](Cc1ccccc1)NC(=O)[C@@H](NC(=O)CNC(=O)[C@H](CCC(=O)O)NC(=O)C(C)(C)NC(=O)[C@@H](N)Cc1c[nH]cn1)[C@@H](C)O)[C@@H](C)O)C(C)C)C(C)C)C(=O)N[C@@H](C)C(=O)N[C@@H](Cc1c[nH]c2ccccc12)C(=O)N[C@@H](CC(C)C)C(=O)N[C@H](C(=O)N[C@@H](CCCCN)C(=O)NC(C)(C)C(=O)N[C@@H](CCCNC(=N)N)C(N)=O)[C@@H](C)CC` [SEQ ID NO: 60] (H-H[Aib]EGTFTSDVSSYWEEQAVKEFIAWLIK[Aib]R-NH2), the EC50 was less than 10 µM. `CC[C@H](C)[C@H](NC(=O)[C@H](Cc1ccccc1)NC(=O)[C@H](CCC(=O)O)NC(=O)[C@H](CCCCN)NC(=O)[C@H](C)NC(=O)[C@H](C)NC(=O)[C@H](CCC(N)=O)NC(=O)CNC(=O)[C@H](CCC(=O)O)NC(=O)[C@H](CC(C)C)NC(=O)[C@H](Cc1ccc(O)cc1)NC(=O)[C@H](CO)NC(=O)[C@H](CO)NC(=O)[C@@H](NC(=O)[C@H](CC(=O)O)NC(=O)[C@H](CO)NC(=O)[C@@H](NC(=O)[C@H](Cc1ccccc1)NC(=O)[C@@H](NC(=O)CNC(=O)[C@H](CCC(=O)O)NC(=O)[C@H](C)NC(=O)[C@@H](N)Cc1c[nH]cn1)[C@@H](C)O)[C@@H](C)O)C(C)C)C(=O)N[C@@H](C)C(=O)N[C@@H](Cc1c[nH]c2ccccc12)C(=O)N[C@@H](CC(C)C)C(=O)N[C@H](C(=O)N[C@@H](CCCCN)C(=O)NCC(=O)N[C@@H](CCCNC(=N)N)C(N)=O)C(C)C` [SEQ ID NO: 1, reference compound] showed an EC50 of less than 10 µM. Still for that read-out and setting: the result for `CC[C@H](C)[C@H](NC(=O)[C@H](Cc1ccccc1)NC(=O)[C@H](CCC(=O)O)NC(=O)[C@H](CCCCN)NC(=O)[C@@H](NC(=O)[C@H](C)NC(=O)[C@H](CCC(N)=O)NC(=O)[C@H](CCC(=O)O)NC(=O)[C@H](CCC(=O)O)NC(=O)[C@H](CC(C)C)NC(=O)[C@H](Cc1ccc(O)cc1)NC(=O)[C@H](CO)NC(=O)[C@H](CO)NC(=O)[C@@H](NC(=O)[C@H](CC(=O)O)NC(=O)[C@H](CO)NC(=O)[C@@H](NC(=O)[C@H](Cc1ccccc1)NC(=O)[C@@H](NC(=O)CNC(=O)[C@H](CCC(=O)O)NC(=O)C(C)(C)NC(=O)[C@@H](N)Cc1c[nH]cn1)[C@@H](C)O)[C@@H](C)O)C(C)C)C(C)C)C(=O)N[C@@H](C)C(=O)N[C@@H](Cc1c[nH]c2ccccc12)C(=O)N[C@@H](CC(C)C)C(=O)N[C@H](C(=O)N[C@@H](CCCCN)C(=O)NC(C)(C)C(=O)N[C@@H](CCCNC(=N)N)C(N)=O)[C@@H](C)CC` [SEQ ID NO: 57] reads less than 10 µM. Same read-out and setting: to `CC[C@H](C)[C@H](NC(=O)[C@H](Cc1ccccc1)NC(=O)[C@H](CCC(=O)O)NC(=O)[C@H](CCCCN)NC(=O)[C@H](C)NC(=O)[C@H](C)NC(=O)[C@H](CCC(N)=O)NC(=O)CNC(=O)[C@H](CCC(=O)O)NC(=O)[C@H](CC(C)C)NC(=O)[C@H](Cc1ccc(O)cc1)NC(=O)[C@H](CO)NC(=O)[C@H](CO)NC(=O)[C@@H](NC(=O)[C@H](CC(=O)O)NC(=O)[C@H](CO)NC(=O)[C@@H](NC(=O)[C@H](Cc1ccccc1)NC(=O)[C@@H](NC(=O)CNC(=O)[C@H](CCC(=O)O)NC(=O)C(C)(C)NC(=O)[C@@H](N)Cc1c[nH]cn1)[C@@H](C)O)[C@@H](C)O)C(C)C)C(=O)N[C@@H](C)C(=O)N[C@@H](Cc1ccccc1)C(=O)N[C@@H](CC(C)C)C(=O)N[C@H](C(=O)N[C@@H](CCCCN)C(=O)NC(C)(C)C(=O)N[C@@H](CCCNC(=N)N)C(N)=O)C(C)C` [SEQ ID NO: 53] belongs less than 10 µM; to `CC[C@H](C)[C@H](NC(=O)[C@H](Cc1ccccc1)NC(=O)[C@H](CCC(=O)O)NC(=O)[C@H](CCCCN)NC(=O)[C@H](C)NC(=O)[C@H](C)NC(=O)[C@H](CCC(N)=O)NC(=O)CNC(=O)[C@H](CCC(=O)O)NC(=O)[C@H](CS)NC(=O)[C@H](Cc1ccc(O)cc1)NC(=O)[C@H](CO)NC(=O)[C@H](CO)NC(=O)[C@@H](NC(=O)[C@H](CC(=O)O)NC(=O)[C@H](CO)NC(=O)[C@@H](NC(=O)[C@H](Cc1ccccc1)NC(=O)[C@@H](NC(=O)CNC(=O)[C@H](CCC(=O)O)NC(=O)C(C)(C)NC(=O)[C@@H](N)Cc1c[nH]cn1)[C@@H](C)O)[C@@H](C)O)C(C)C)C(=O)N[C@@H](C)C(=O)N[C@@H](Cc1c[nH]c2ccccc12)C(=O)N[C@@H](CC(C)C)C(=O)N[C@H](C(=O)N[C@@H](CCCCN)C(=O)NC(C)(C)C(=O)N[C@@H](CCCNC(=N)N)C(N)=O)C(C)C` [SEQ ID NO: 41] (H-H[Aib]EGTFTSDVSSYCEGQAAKEFIAWLVK[Aib]R-NH2), less than 10 µM. `CC[C@H](C)[C@H](NC(=O)[C@H](Cc1ccccc1)NC(=O)[C@H](CCC(=O)O)NC(=O)[C@H](CCCCN)NC(=O)[C@H](C)NC(=O)[C@H](C)NC(=O)[C@H](CCC(N)=O)NC(=O)CNC(=O)[C@H](CCC(=O)O)NC(=O)CNC(=O)[C@H](Cc1ccc(O)cc1)NC(=O)[C@H](CO)NC(=O)[C@H](CO)NC(=O)[C@@H](NC(=O)[C@H](CC(=O)O)NC(=O)[C@H](CO)NC(=O)[C@@H](NC(=O)[C@H](Cc1ccccc1)NC(=O)[C@@H](NC(=O)CNC(=O)[C@H](CCC(=O)O)NC(=O)C(C)(C)NC(=O)[C@@H](N)Cc1c[nH]cn1)[C@@H](C)O)[C@@H](C)O)C(C)C)C(=O)N[C@@H](C)C(=O)N[C@@H](Cc1c[nH]c2ccccc12)C(=O)N[C@@H](CC(C)C)C(=O)N[C@H](C(=O)N[C@@H](CCCCN)C(=O)NC(C)(C)C(=O)N[C@@H](CCCNC(=N)N)C(N)=O)C(C)C` [SEQ ID NO: 40] (H-H[Aib]EGTFTSDVSSYGEGQAAKEFIAWLVK[Aib]R-NH2) had an EC50 of less than 10 µM. Same read-out and setting: to `CC[C@H](C)[C@H](NC(=O)[C@H](Cc1ccccc1)NC(=O)[C@H](CCC(=O)O)NC(=O)[C@H](CCCCN)NC(=O)[C@H](C)NC(=O)[C@H](C)NC(=O)[C@H](CCC(N)=O)NC(=O)CNC(=O)[C@H](CCC(=O)O)NC(=O)[C@H](Cc1ccc(O)cc1)NC(=O)[C@H](Cc1ccc(O)cc1)NC(=O)[C@H](CO)NC(=O)[C@H](CO)NC(=O)[C@@H](NC(=O)[C@H](CC(=O)O)NC(=O)[C@H](CO)NC(=O)[C@@H](NC(=O)[C@H](Cc1ccccc1)NC(=O)[C@@H](NC(=O)CNC(=O)[C@H](CCC(=O)O)NC(=O)C(C)(C)NC(=O)[C@@H](N)Cc1c[nH]cn1)[C@@H](C)O)[C@@H](C)O)C(C)C)C(=O)N[C@@H](C)C(=O)N[C@@H](Cc1c[nH]c2ccccc12)C(=O)N[C@@H](CC(C)C)C(=O)N[C@H](C(=O)N[C@@H](CCCCN)C(=O)NC(C)(C)C(=O)N[C@@H](CCCNC(=N)N)C(N)=O)C(C)C` [SEQ ID NO: 43] (H-H[Aib]EGTFTSDVSSYYEGQAAKEFIAWLVK[Aib]R-NH2) belongs less than 10 µM; to `CC[C@H](C)[C@H](NC(=O)[C@H](Cc1ccccc1)NC(=O)[C@H](CCC(=O)O)NC(=O)[C@H](CCCCN)NC(=O)[C@H](C)NC(=O)[C@H](C)NC(=O)[C@H](CCC(N)=O)NC(=O)[C@H](CCCCN)NC(=O)[C@H](CCC(=O)O)NC(=O)[C@H](CC(C)C)NC(=O)[C@H](Cc1ccc(O)cc1)NC(=O)[C@H](CO)NC(=O)[C@H](CO)NC(=O)[C@@H](NC(=O)[C@H](CC(=O)O)NC(=O)[C@H](CO)NC(=O)[C@@H](NC(=O)[C@H](Cc1ccccc1)NC(=O)[C@@H](NC(=O)CNC(=O)[C@H](CCC(=O)O)NC(=O)C(C)(C)NC(=O)[C@@H](N)Cc1c[nH]cn1)[C@@H](C)O)[C@@H](C)O)C(C)C)C(=O)N[C@@H](C)C(=O)N[C@@H](Cc1c[nH]c2ccccc12)C(=O)N[C@@H](CC(C)C)C(=O)N[C@H](C(=O)N[C@@H](CCCCN)C(=O)NC(C)(C)C(=O)N[C@@H](CCCNC(=N)N)C(N)=O)C(C)C` [SEQ ID NO: 47] (H-H[Aib]EGTFTSDVSSYLEKQAAKEFIAWLVK[Aib]R-NH2), less than 10 µM; to `CC[C@H](C)[C@H](NC(=O)[C@H](Cc1ccccc1)NC(=O)[C@H](CCC(=O)O)NC(=O)[C@H](CCCCN)NC(=O)[C@@H](NC(=O)[C@H](C)NC(=O)[C@H](CCC(N)=O)NC(=O)[C@H](CCC(=O)O)NC(=O)[C@H](CCC(=O)O)NC(=O)[C@H](Cc1ccc(O)cc1)NC(=O)[C@H](Cc1ccc(O)cc1)NC(=O)[C@H](CO)NC(=O)[C@H](CO)NC(=O)[C@@H](NC(=O)[C@H](CC(=O)O)NC(=O)[C@H](CO)NC(=O)[C@@H](NC(=O)[C@H](Cc1ccccc1)NC(=O)[C@@H](NC(=O)CNC(=O)[C@H](CCC(=O)O)NC(=O)C(C)(C)NC(=O)[C@@H](N)Cc1c[nH]cn1)[C@@H](C)O)[C@@H](C)O)C(C)C)C(C)C)C(=O)N[C@@H](C)C(=O)N[C@@H](Cc1c[nH]c2ccccc12)C(=O)N[C@@H](CC(C)C)C(=O)N[C@H](C(=O)N[C@@H](CCCCN)C(=O)NC(C)(C)C(=O)N[C@@H](CCCNC(=N)N)C(N)=O)[C@@H](C)CC` [SEQ ID NO: 59] (H-H[Aib]EGTFTSDVSSYYEEQAVKEFIAWLIK[Aib]R-NH2), less than 10 µM.
